The term Ki denotes a measure of affinity in units of concentration, obtained from inhibition or displacement.

This test concerns the target T1, cannabinoid receptor 1 (CB1) (Homo sapiens, UniProt P21554).
T1 construct: gene CNR1; human recombinant receptor expressed in Chem-1 cells
Nature of the test: radioligand displacement binding assay. In kind it is cell-based. On the technique in general: Displacement assays read how much labelled ligand stays bound in the presence of the test substance.

T1 sequence (P21554 whole entry): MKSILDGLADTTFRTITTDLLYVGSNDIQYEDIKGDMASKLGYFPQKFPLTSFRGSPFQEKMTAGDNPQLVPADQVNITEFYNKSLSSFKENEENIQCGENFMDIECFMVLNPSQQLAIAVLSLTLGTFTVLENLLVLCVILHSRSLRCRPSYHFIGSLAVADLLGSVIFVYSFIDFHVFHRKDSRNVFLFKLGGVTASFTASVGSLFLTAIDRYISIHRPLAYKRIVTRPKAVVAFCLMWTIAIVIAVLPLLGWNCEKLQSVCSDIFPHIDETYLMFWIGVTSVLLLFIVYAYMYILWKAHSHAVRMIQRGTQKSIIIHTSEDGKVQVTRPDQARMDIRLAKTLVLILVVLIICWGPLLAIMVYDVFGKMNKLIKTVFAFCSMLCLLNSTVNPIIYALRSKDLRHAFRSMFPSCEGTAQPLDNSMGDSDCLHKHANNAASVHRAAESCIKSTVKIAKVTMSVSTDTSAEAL

`O=c1c(-c2ccc(O)cc2)coc2cc(O)cc(O)c12` [genistein] displayed a Ki of 140 nM.

Source of the values: paper PMC12822132, “Targeting mechanosensitive cannabinoid receptor 1 with isoflavone prodrugs attenuates atherosclerotic endothelial dysfunction” (Journal of Biomedical Science, 2026).
